What was measured:
Type in all cases: in vivo
green foxtail (Se) = assay: Test Example 2: herbicidal effects by upland soil treatment; details: dose 100 g active ingredient per 10 ares, examined on the 21st day after treatment, standards of Table 44;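 also: 0-5 growth inhibition grade; 5 = over 90%; 4 = 70-90%; 3 = 50-70%; 2 = 30-50%; 1 = 10-30%; 0 = under 10%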
Protocol: In a 80 cm^2 plastic pot, upland soil was filled, and seeds of barnyard grass (Ec) and green foxtail (Se) were sown and covered with soil. A wettable powder prepared in accordance with Formulation Example 1 was diluted with water and uniformly applied to the soil surface by means of a small size spray at a rate of 100 l per 10 ares, so that the dose of the active ingredient would be 100 g per 10 ares. Thereafter, cultivation was carried out in a green house, and on the 21st day after the treatment, the herbicidal effects were examined in accordance with the standards as identified in Table 44.

monochoria (Mo) [1] = assay: Test Example 1: herbicidal effects by flooded paddy field treatment; design: herbicidal effects, Mo (monochoria):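 0-5 growth inhibition grade; 5 = over 90%; 4 = 70-90%; 3 = 50-70%; 2 = 30-50%; 1 = 10-30%; 0 = under 10%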; details: for herbicidal effects, Mo (monochoria): dose 100 g active ingredient per 10 ares, examined on the 21st day after treatment, standards of Table 44;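 as to Herbicidal effect index, Mo: 0-5 growth inhibition grade; 5 = over 90%; 4 = 70-90%; 3 = 50-70%; 2 = 30-50%; 1 = 10-30%; 0 = under 10%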
Method in brief: (§1)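 Puddled paddy soil in pots, seeds sown, 3 cm flood. Day after sowing: wettable powder diluted in water, applied dropwise to water surface, 100 g a.i./10 ares. Greenhouse; visual herbicidal rating at day 21 post-treatment.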

barnyard grass (Ec) [2] = assay: Test Example 2: herbicidal effects by upland soil treatment; design: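 0-5 growth inhibition grade; 5 = over 90%; 4 = 70-90%; 3 = 50-70%; 2 = 30-50%; 1 = 10-30%; 0 = under 10%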; details: dose 100 g active ingredient per 10 ares, examined on the 21st day after treatment; for herbicidal effects, Ec (barnyard grass): standards of Table 44
Method in brief: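 Pre-emergence test: barnyard grass and green foxtail sown in upland soil, then soil surface sprayed with wettable-powder formulation at 100 g active ingredient per 10 ares (100 l per 10 ares). Grown in greenhouse; herbicidal effect scored on a rating scale 21 days after treatment.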

barnyard grass (Eo) [3] = assay: Test Example 1: herbicidal effects by flooded paddy field treatment; design: herbicidal effects, Eo (barnyard grass):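 0-5 growth inhibition grade; 5 = over 90%; 4 = 70-90%; 3 = 50-70%; 2 = 30-50%; 1 = 10-30%; 0 = under 10%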; details: for herbicidal effects, Eo (barnyard grass): dose 100 g active ingredient per 10 ares, examined on the 21st day after treatment, standards of Table 44;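 as to Herbicidal effect index, Eo: 0-5 growth inhibition grade; 5 = over 90%; 4 = 70-90%; 3 = 50-70%; 2 = 30-50%; 1 = 10-30%; 0 = under 10%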
Method in brief: as §1

barnyard grass (Eo) [4] = assay: Test Example 4: selectivity for a crop plant by flooded paddy field treatment; design: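 0-5 growth inhibition grade; 5 = over 90%; 4 = 70-90%; 3 = 50-70%; 2 = 30-50%; 1 = 10-30%; 0 = under 10%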; details: barnyard grass, dose 25 gai/10a, 21st day after treatment, index per Table 44
Method in brief: (§2)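 Flooded paddy pots, 3 cm water; weeds sown from seed, rice transplanted at 2nd-leaf stage. Day after: wettable powder diluted in water, applied dropwise to water surface, 25 g a.i./10 a. Greenhouse; herbicidal effect rated at day 21.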

rice (Or) = assay: as above; design: scale not given here; details: rice transplanted at second leaf stage, dose 25 gai/10a, 21st day after treatment, index per Table 44
Method in brief: as §2

monochoria (Mo) [5] = assay: as above; design: scale not given here; details: monochoria, dose 25 gai/10a, 21st day after treatment, index per Table 44
Method in brief: as §2

barnyard grass (Ec) [6] = assay: Test Example 3: herbicidal effects by foliage treatment in upland field; design: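 0-5 growth inhibition grade; 5 = over 90%; 4 = 70-90%; 3 = 50-70%; 2 = 30-50%; 1 = 10-30%; 0 = under 10%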; details: dose 100 g active ingredient per 10 ares, examined on the 14th day after treatment
Method in brief: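 Barnyard grass and green foxtail were grown in upland soil for 2 weeks in a greenhouse. A water-diluted wettable powder was sprayed over the foliage at 100 l per 10 ares, giving 100 g active ingredient per 10 ares. Herbicidal effect was scored on day 14 after treatment.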

[7] = dose 100 gai/10a, examined on 21st day after treatment, index 0-5 per Table 44

| SMILES | herbicidal effects, Se (green foxtail) (green foxtail (Se)) | Herbicidal effect index, Mo (monochoria (Mo) [1]; [7]) | herbicidal effects, Ec (barnyard grass) (barnyard grass (Ec) [2]) | Herbicidal effect index, Eo (barnyard grass (Eo) [3]; [7]) | herbicidal effects, Mo (monochoria) (monochoria (Mo) [1]) | herbicidal effects, Eo (barnyard grass) (barnyard grass (Eo) [3]) | Eo (herbicidal effect index) (barnyard grass (Eo) [4]) | Or (herbicidal effect index on crop) (rice (Or)) | Mo (herbicidal effect index) (monochoria (Mo) [5]) | Ec (herbicidal effects, index) (barnyard grass (Ec) [6]) | Ec (herbicidal effects, index) (barnyard grass (Ec) [2]) |
| --- | --- | --- | --- | --- | --- | --- | --- | --- | --- | --- | --- |
| CC(Oc1ccccc1)C(=O)N(C)C(c1cncnc1C(F)(F)F)C(C)C (mixture of isomers) [Compound 1-115] | 5 | 5 | 5 | 5 |  |  |  |  |  |  |  |
| Cc1ncncc1C(N(C)C(=O)Cc1ccccc1)C(C)(C)C (racemic) [Compound 1-159] | 5 |  | 5 |  | 5 | 5 |  |  |  |  |  |
| CC(C)C(c1cncnc1C(F)F)N(C)C(=O)Cc1ccc(Cl)cc1 (racemic) [Compound 1-165] | 5 |  | 5 |  | 5 | 5 |  |  |  |  |  |
| CC(C)C(c1cncnc1C(F)(F)F)N(C)C(=O)Cc1cccc(F)c1F (racemic) [Compound 1-148] | 5 |  | 5 |  | 5 | 5 |  |  |  |  |  |
| CN(C(=O)Cc1ccc(Cl)cc1)C(c1ccccc1)c1cncnc1C(F)(F)F (racemic) [1-187] | 5 |  | 5 |  | 5 | 5 |  |  |  |  |  |
| CSc1ncncc1C(C(C)C)N(C)C(=O)Cc1ccc(Cl)cc1 (racemic) [Compound 1-151] | 5 |  | 5 |  | 5 | 5 |  |  |  |  |  |
| COc1ccc(SC(=O)N(C)C(c2cncnc2C(F)(F)F)C(C)C)cc1 (racemic) [Compound 1-11] | 5 |  | 5 |  |  |  |  |  |  |  |  |
| CCOC(=O)c1ncncc1C(C(C)C)N(C)C(=O)C(C)c1ccc(Cl)cc1 (single isomer, unassigned) [1-594] |  |  |  |  | 5 | 5 | 5 | 1 | 5 | 5 | 5 |
| CCCc1ncncc1C(CCC)N(C)C(=O)Cc1ccc(F)cc1 (racemic) [1-493] |  |  |  |  | 5 | 5 | 5 | 1 | 5 | 4 | 5 |
| CC(C)CC(c1cncnc1C(F)(F)F)N(C)C(=O)Cc1cccc(F)c1 (racemic) [1-334] |  |  |  |  | 5 | 5 | 5 | 0 | 5 | 4 | 5 |
| CC(C)C(c1cncnc1C(F)(F)F)N(C)C(=O)N(C)c1ccc(C#N)cc1 (racemic) [1-459] |  |  |  |  | 5 | 5 | 5 | 1 | 5 | 4 | 5 |
| COc1ccc(C(c2cncnc2C(F)(F)F)N(C)C(=O)Cc2ccccc2)cc1 (racemic) [1-484] |  |  |  |  | 5 | 5 | 5 | 1 | 5 | 5 | 5 |

— patent US6806230B1, “Pyrimidine derivatives and herbicides containing them” (Kumiai Chemical Industry Co., Ltd., priority 1999, dated 2004)
